For one test, the system named is TMD8 cells xenografts. The test can be described thus: TMD8 ABC-DLBCL xenograft in NOD-SCID mice. Format: in vivo. The conditions noted are these: 100 mg/Kg, BID; n=9. The procedure:
NOD-Scid mice subcutaneously inoculated with TMD8 cells (15×10^6) were split in two groups respectively treated with TK-216 (100 mg/kg, BID, po, n=9) and control vehicle (n=10). In each box-plot, the line in the middle of the box represents the median and the box extends from the 25th to the 75th percentile (interquartile range, IQ); the whiskers extend to the upper and lower adjacent values (i.e., ±1.5 IQ).
56 lymphoma cell lines [27 diffuse large B cell lymphoma (DLBCL); 10 mantle cell lymphoma; 6 marginal zone lymphoma; 5 anaplastic large T-cell lymphoma; 8 others] were exposed to TK-216 increasing doses for 72 h using a Tecan D300e Digital Dispenser and 384 well plates. Cell proliferation was measured with MTT. In vivo study was done in NOD-SCID mice; treatments were started with approximately sc 60 mm3 tumor volumes. Sensitivity was not affected by the lymphoma cell of origin (B vs T; activated B cell type DLBCL versus germinal center type DLBCL) or MYC and TP53 status. There was a non-statistically significant trend for lower sensitivity in cell lines bearing BCL2 chromosomal translocation (P=0.07, DLBCL only; P=0.06, all cell lines).
(§1) The latter synergism could be linked to the previously mentioned negative trend between TK-216 IC50 values and the presence of BCL2 translocation.
(§2) Cell lines were exposed to YK-4-279 or TK-216, alone or in combination with other compounds, for 72 h using a Tecan D300e Digital Dispenser and 96 well plates. Cell proliferation was measured with MTT. Synergy was determined with the Chou-Talalay combination index. Gene expression profiling (GEP) was performed with the Illumina HumanHT 12 Expression BeadChips. In vivo studies were done in NOD-SCID mice and treatments started with 60 mm3 tumor volumes sc.

The test system of the next test is DLBCL cell lines. As to the kind of experiment: Combination with other targeted agents, summary over DLBCL cell lines. It is filed as cell-based. The settings on record: with lenalidomide; four DLBCL cell lines (2 ABC, 2 GCB). The procedure:
as §1, §2
Since lenalidomide is active in mantle cell lymphoma (MCL), the synergism of the combination of TK-216 and lenalidomide was confirmed also in two MCL cell lines.

Another test deals with T1, SPIB to RHA (Homo sapiens, UniProt Q01892).
T1 construct: endogenous in cells
T1 sequence (Q01892 whole entry): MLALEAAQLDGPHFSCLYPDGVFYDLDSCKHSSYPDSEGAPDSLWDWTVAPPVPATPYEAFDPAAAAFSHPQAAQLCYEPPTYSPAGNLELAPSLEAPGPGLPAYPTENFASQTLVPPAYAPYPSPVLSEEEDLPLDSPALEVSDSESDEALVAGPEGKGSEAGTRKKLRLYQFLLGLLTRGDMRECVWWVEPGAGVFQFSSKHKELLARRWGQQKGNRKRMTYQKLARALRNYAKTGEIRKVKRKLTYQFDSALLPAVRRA
The test can be described thus: Co-IP of SPIB with helicases in ABC DLBCL cell lines. It is filed as cell-based. The conditions noted are these: 500 nM, 4-10 h. The text has this:
(§3) With the aim to understand the mechanism of action of YK-4-279 and TK-216, the baseline RNA expression levels of the different ETS factors were correlated with sensitivity to the drugs. SPIB was the gene presenting the most significant negative correlation with both YK-4-279 and TK-216, especially among the ABC DLBCL cell lines (P<0.05). SPIB is a known oncogene for ABC DLBCL (Lenz et al, PNAS 2008) and is involved in the response to lenalidomide in ABC DLBCL (Yang et al, Cancer Cell 2012). YK-4-279 inhibits the binding of EWS1-FLI1 to the helicases RHA and DDX5 (Selvanathan et al, PNAS 2012). Thus, it was assessed whether YK-4-279 and TK-216 can have a similar effect on SPIB and whether they induce cellular effects similar to lenalidomide. […] In ABC DLBCL, the ETS inhibitor YK-4-279 and its clinical derivative TK-216 interfere with SPIB and helicases involved in RNA editing. Moreover, both compounds act similarly to lenalidomide inhibiting IRF4 and upregulating IRF7 and synergize with the IMID in both ABC DLBCL and MCL.

Another test deals with T2, SPIB to DDX5 (Homo sapiens, UniProt Q01892).
T2 construct: endogenous in cells
T2 sequence (Q01892 whole entry): as above
The test is described as above. Format: cell-based. The settings on record: 500 nM, 4-10 h.
Excerpt: as §3

The next test deals with THP-1. As to the kind of experiment: 72 hr CellTiter-Glo, AML cell line. It is filed as cell-based.
A further test concerns MOLM-16. As to the kind of experiment: 72 hr CellTiter-Glo, AML cell line. Format: cell-based. Background: ATP-based viability assays read luminescence as a measure of living cells.
For another test, the system named is Kasumi-1. As to the kind of experiment: 72 hr CellTiter-Glo, AML cell line. It is filed as cell-based.
The test system of the next test is HL-60. As to the kind of experiment: 72 hr CellTiter-Glo, AML cell line. Format: cell-based.
The next test relates to MOLM-13. As to the kind of experiment: 72 hr CellTiter-Glo, AML cell line. It is filed as cell-based.
In a further test the test system is ML-2. The test can be described thus: 72 hr CellTiter-Glo, AML cell line. Format: cell-based.
The test system of another test is snoRNAs. As to the kind of experiment: Gene expression profiling (Illumina HumanHT 12) of ABC DLBCL cell lines. Format: cell-based. The settings on record: 500 nM, 4-8 h; two ABC DLBCL cell lines. The procedure:
as §2
as §3, with “Moreover, both compounds act similarly to lenalidomide inhibiting IRF4 and upregulating IRF7 and synergize with the IMID in both ABC DLBCL and MCL.” left out

The values that follow come from patent publication US11285132B2, “Uses of indolinone compounds” (Oncternal Therapeutics, Inc., priority 2016, dated 2022).

Regarding `COc1ccc(C(=O)CC2(O)C(=O)Nc3c(Cl)ccc(Cl)c32)cc1` (centres unmarked) [YK-4-279, 4,7-dichloro-3-hydroxy-3-(2-(4-methoxyphenyl)-2-oxoethyl)indolin-2-one, reference compound], the “tumor growth compared with control group” value with TMD8 cells xenografts is “reduction in tumor growth”. Also, in the test with DLBCL cell lines, the “combination of YK-4-279 plus lenalidomide” value is “synergism in both ABC DLBCL”. The “binding of SPIB to RHA” value at SPIB to RHA is “decreased”. Also, the “binding of SPIB to DDX5” value on SPIB to DDX5 is “to a lesser extent, to DDX5 was decreased”.

On to `N.N.[Cl][Pt][Cl]` [Cisplatin, reference compound], for which the IC50 was 1.36 µM in the test on THP-1; 2.19 µM in the test with MOLM-16; 4.56 µM in the test with Kasumi-1; 1.93 µM with HL-60; 0.798 µM with MOLM-13; 1.4 µM in the test on ML-2.

Turning to `COc1ccc(C(=O)C[C@@]2(O)C(=O)Nc3c(Cl)ccc(Cl)c32)cc1` [(S)-YK-4-279], the “snoRNA expression (GEP)” value in the test with snoRNAs was “important upregulation of multiple snoRNAs”.

Usually IC50 stands for the concentration that gives 50% inhibition. Low values mean greater potency, high ones weaker potency.
